Data: the NIST ThermoML archive (doi:10.1021/je025534p)
± gives the expanded uncertainty stated by the source.

Conditions: Liquid, Ebulliometric method (Recirculating still)

Row | vapor or sublimation pressure (298 K) | vapor or sublimation pressure (303 K) | vapor or sublimation pressure (308 K) | vapor or sublimation pressure (313 K) | vapor or sublimation pressure (318 K) | vapor or sublimation pressure (323 K) | vapor or sublimation pressure (328 K) | vapor or sublimation pressure (333 K) | vapor or sublimation pressure (338 K) | vapor or sublimation pressure (343 K) | vapor or sublimation pressure (348 K) | vapor or sublimation pressure (353 K) | vapor or sublimation pressure (358 K) | vapor or sublimation pressure (363 K) | vapor or sublimation pressure (366 K) | vapor or sublimation pressure (356 K) | vapor or sublimation pressure (373 K) | Compound
1 | 8.89 ± 4 kPa | 11.17 ± 4 kPa | 13.9 ± 4 kPa | 17.17 ± 4 kPa | 21.04 ± 4 kPa | 25.62 ± 4 kPa | 30.97 ± 4 kPa | 37.21 ± 4 kPa | 44.43 ± 4 kPa | 52.75 ± 4 kPa | 62.29 ± 4 kPa | 73.16 ± 4 kPa | 85.51 ± 4 kPa | 99.46 ± 4 kPa | 99 ± 9.9 kPa |  |  | CC1COC(C)O1 (centres undefined) [2,4-dimethyl-1,3-dioxolane]
2 | 11.29 ± 4 kPa | 14.2 ± 4 kPa | 17.72 ± 4 kPa | 21.98 ± 4 kPa | 27.07 ± 4 kPa | 33.15 ± 4 kPa | 40.35 ± 4 kPa | 48.83 ± 4 kPa | 58.78 ± 4 kPa | 70.39 ± 4 kPa | 83.87 ± 4 kPa | 99.46 ± 4 kPa |  |  |  | 99 ± 9.9 kPa |  | CC1OCCO1 [2-methyl-1,3-dioxolane]
3 |  |  |  |  |  |  |  |  |  |  |  |  |  |  |  |  | 99 ± 9.9 kPa | O [water]
